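Tested at 5 concentrations; 48 h exposure; 96-well plates; endpoints linearly interpolated, else capped at highest concentration. Here, GI50 denotes the concentration required for 50% inhibition of growth.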 Activity calls are given as the source filed them. Rule as the data show it: active = GI50 up to about 1.1 µM and inactive = higher.
How the values were obtained:
Assay in all cases: NCI-60 cell line screen, 48 h
SR = system: SR
RPMI-8226 = system: RPMI-8226
NCI-H23 = system: NCI-H23
KM12 = system: KM12
SF-295 = system: SF-295
HCC 2998 = system: HCC 2998
SF-539 = system: SF-539
ACHN = system: ACHN
MCF7 = system: MCF7
DU-145 = system: DU-145
UACC-62 = system: UACC-62
SW-620 = system: SW-620
MDA-MB-435 = system: MDA-MB-435
CCRF-CEM = system: CCRF-CEM
M14 = system: M14
MDA-MB-231 = system: MDA-MB-231
SK-OV-3 = system: SK-OV-3
RXF 393 = system: RXF 393
CAKI-1 = system: CAKI-1
U-251 = system: U-251

SMILES	GI50 (SR)	GI50 (RPMI-8226)	GI50 (NCI-H23)	GI50 (KM12)	GI50 (SF-295)	GI50 (HCC 2998)	GI50 (SF-539)	GI50 (ACHN)	GI50 (MCF7)	GI50 (DU-145)	GI50 (UACC-62)	GI50 (SW-620)	GI50 (MDA-MB-435)	GI50 (CCRF-CEM)	GI50 (M14)	GI50 (MDA-MB-231)	GI50 (SK-OV-3)	GI50 (RXF 393)	GI50 (CAKI-1)	GI50 (U-251)
O=c1oc2ccccc2cc1-c1ccc([N+](=O)[O-])cc1	57.9 µM (inactive)	> 100 µM (inactive)	> 100 µM (inactive)	> 100 µM (inactive)	83.6 µM (inactive)	> 100 µM (inactive)	17.9 µM (inactive)	> 100 µM (inactive)	> 100 µM (inactive)	> 100 µM (inactive)	89.5 µM (inactive)	25.8 µM (inactive)	> 100 µM (inactive)	> 100 µM (inactive)	> 100 µM (inactive)	> 100 µM (inactive)	65.3 µM (inactive)	> 100 µM (inactive)	> 100 µM (inactive)	9.53 µM (inactive)
O=C(O)c1[nH]c(=O)[nH]c(=O)c1CN1CCCCC1	> 100 µM (inactive)	> 100 µM (inactive)	> 100 µM (inactive)	> 100 µM (inactive)	> 100 µM (inactive)	> 100 µM (inactive)	–	> 100 µM (inactive)	> 100 µM (inactive)	> 100 µM (inactive)	> 100 µM (inactive)	> 100 µM (inactive)	> 100 µM (inactive)	0.0553 µM (active)	> 100 µM (inactive)	> 100 µM (inactive)	> 100 µM (inactive)	> 100 µM (inactive)	> 100 µM (inactive)	> 100 µM (inactive)
Nc1ccn(C2OC(CO)C(O)C2O)c(=O)n1 (stereo unspecified)	0.23 µM (active)	337 µM (inactive)	0.248 µM (active)	468 µM (inactive)	12.8 µM (inactive)	107 µM (inactive)	30.8 µM (inactive)	0.277 µM (active)	0.156 µM (active)	1.74 µM (inactive)	1.08 µM (active)	31.4 µM (inactive)	35.4 µM (inactive)	0.0527 µM (active)	0.186 µM (active)	196 µM (inactive)	198 µM (inactive)	191 µM (inactive)	1.04 µM (active)	8.89 µM (inactive)
CC1=NN(C(=O)CC(=O)Nc2cccc(C)c2)C(=O)C1/N=N/c1ccc(C(=O)O)cc1 (stereo unspecified)	37.9 µM (inactive)	> 100 µM (inactive)	> 100 µM (inactive)	> 100 µM (inactive)	> 100 µM (inactive)	> 100 µM (inactive)	> 100 µM (inactive)	> 100 µM (inactive)	> 100 µM (inactive)	> 100 µM (inactive)	> 100 µM (inactive)	> 100 µM (inactive)	> 100 µM (inactive)	> 100 µM (inactive)	> 100 µM (inactive)	> 100 µM (inactive)	–	> 100 µM (inactive)	> 100 µM (inactive)	> 100 µM (inactive)
O=C(/C=C/c1ccc(OCc2ccccc2)c(OCc2ccccc2)c1)OCc1ccccc1	> 100 µM (inactive)	> 100 µM (inactive)	> 100 µM (inactive)	> 100 µM (inactive)	> 100 µM (inactive)	> 100 µM (inactive)	> 100 µM (inactive)	> 100 µM (inactive)	> 100 µM (inactive)	> 100 µM (inactive)	> 100 µM (inactive)	> 100 µM (inactive)	> 100 µM (inactive)	–	> 100 µM (inactive)	> 100 µM (inactive)	> 100 µM (inactive)	> 100 µM (inactive)	> 100 µM (inactive)	> 100 µM (inactive)
CCOC(=O)C1CSCCSC1	> 100 µM (inactive)	–	> 100 µM (inactive)	> 100 µM (inactive)	> 100 µM (inactive)	25.5 µM (inactive)	–	> 100 µM (inactive)	> 100 µM (inactive)	> 100 µM (inactive)	–	> 100 µM (inactive)	> 100 µM (inactive)	> 100 µM (inactive)	–	> 100 µM (inactive)	> 100 µM (inactive)	> 100 µM (inactive)	–	> 100 µM (inactive)
CCOP(=O)(OCC)C(NC(=O)OCC(Cl)(Cl)Cl)n1nnc(C(=O)OC)c1C(=O)OC (stereo unspecified)	> 100 µM (inactive)	> 100 µM (inactive)	> 100 µM (inactive)	> 100 µM (inactive)	> 100 µM (inactive)	> 100 µM (inactive)	> 100 µM (inactive)	> 100 µM (inactive)	> 100 µM (inactive)	> 100 µM (inactive)	> 100 µM (inactive)	> 100 µM (inactive)	> 100 µM (inactive)	> 100 µM (inactive)	> 100 µM (inactive)	> 100 µM (inactive)	> 100 µM (inactive)	> 100 µM (inactive)	> 100 µM (inactive)	> 100 µM (inactive)
O=C1/C(=C/c2ccccc2S)N=C(c2ccccc2)N1c1nc2c(Cl)cc(Cl)cc2s1	15.2 µM (inactive)	21.8 µM (inactive)	–	24.3 µM (inactive)	24.7 µM (inactive)	26.4 µM (inactive)	17 µM (inactive)	22.6 µM (inactive)	22.3 µM (inactive)	32.5 µM (inactive)	20.4 µM (inactive)	27.7 µM (inactive)	21.8 µM (inactive)	2.27 µM (inactive)	25.9 µM (inactive)	40.4 µM (inactive)	20.9 µM (inactive)	23.7 µM (inactive)	32.6 µM (inactive)	23.4 µM (inactive)
Nc1nc(Cl)c(/C=N\O)c(NCC2(CO)CCC2)n1	11.6 µM (inactive)	8.11 µM (inactive)	1.73 µM (inactive)	6.25 µM (inactive)	21.2 µM (inactive)	68.7 µM (inactive)	33.8 µM (inactive)	26.3 µM (inactive)	25.2 µM (inactive)	40.4 µM (inactive)	–	> 100 µM (inactive)	40.2 µM (inactive)	28.5 µM (inactive)	–	51.2 µM (inactive)	–	22.4 µM (inactive)	25.6 µM (inactive)	> 100 µM (inactive)
CCCCCCCCCCCCCCCCNc1ccn(C2CC(OP(=O)(O)OCC3OC(n4cc(CC)c(=O)[nH]c4=O)CC3O)C(CO)O2)c(=O)n1 (stereo unspecified)	22.4 µM (inactive)	17.8 µM (inactive)	34.6 µM (inactive)	15.7 µM (inactive)	18.7 µM (inactive)	24.5 µM (inactive)	18.4 µM (inactive)	42.8 µM (inactive)	32.5 µM (inactive)	31.8 µM (inactive)	18 µM (inactive)	23.8 µM (inactive)	46.9 µM (inactive)	–	17.8 µM (inactive)	35.2 µM (inactive)	27.3 µM (inactive)	13.7 µM (inactive)	42.9 µM (inactive)	26.8 µM (inactive)
CC1(C)OC[C@@H]([C@@]2(COC(c3ccccc3)(c3ccccc3)c3ccccc3)CC=CC(=O)O2)O1	33 µM (inactive)	23.4 µM (inactive)	42.1 µM (inactive)	27.9 µM (inactive)	36.5 µM (inactive)	19 µM (inactive)	37.2 µM (inactive)	30.5 µM (inactive)	21.8 µM (inactive)	56.2 µM (inactive)	28 µM (inactive)	40.1 µM (inactive)	33.1 µM (inactive)	33.3 µM (inactive)	39.7 µM (inactive)	41.7 µM (inactive)	38.8 µM (inactive)	24.2 µM (inactive)	30.6 µM (inactive)	48.9 µM (inactive)
N#C/C(=C\c1ccc(F)cc1)c1nc(-c2cc3ccccc3oc2=O)cs1	> 100 µM (inactive)	87.9 µM (inactive)	–	59 µM (inactive)	14 µM (inactive)	37.7 µM (inactive)	18 µM (inactive)	22 µM (inactive)	37.8 µM (inactive)	38.6 µM (inactive)	15 µM (inactive)	40.4 µM (inactive)	54.2 µM (inactive)	> 100 µM (inactive)	13.8 µM (inactive)	12.7 µM (inactive)	20.4 µM (inactive)	18.6 µM (inactive)	53.6 µM (inactive)	14.6 µM (inactive)
COc1ccc(-c2cc(-c3ccc(Nc4ccnc5cc(Cl)ccc45)cc3)[nH]c(=O)c2C#N)cc1	> 100 µM (inactive)	> 100 µM (inactive)	> 100 µM (inactive)	2.86 µM (inactive)	> 100 µM (inactive)	> 100 µM (inactive)	> 100 µM (inactive)	> 100 µM (inactive)	> 100 µM (inactive)	> 100 µM (inactive)	> 100 µM (inactive)	> 100 µM (inactive)	> 100 µM (inactive)	–	> 100 µM (inactive)	> 100 µM (inactive)	> 100 µM (inactive)	> 100 µM (inactive)	> 100 µM (inactive)	> 100 µM (inactive)
CCOC(=O)C1=CNC(C(=O)OCC)C1c1cccn1-c1ccccc1 (stereo unspecified)	24.8 µM (inactive)	–	37.7 µM (inactive)	30.8 µM (inactive)	24.5 µM (inactive)	28.7 µM (inactive)	20.4 µM (inactive)	30.5 µM (inactive)	31.9 µM (inactive)	41.3 µM (inactive)	24.4 µM (inactive)	27.1 µM (inactive)	21.2 µM (inactive)	29.3 µM (inactive)	32.9 µM (inactive)	12.5 µM (inactive)	–	19.4 µM (inactive)	32.6 µM (inactive)	29.6 µM (inactive)
Cc1cc(C)c2c(c1)C(=O)C1(C2)Cc2c(ccc(C)c2C)C1=O (stereo unspecified)	> 100 µM (inactive)	> 100 µM (inactive)	–	> 100 µM (inactive)	> 100 µM (inactive)	> 100 µM (inactive)	85.5 µM (inactive)	> 100 µM (inactive)	> 100 µM (inactive)	> 100 µM (inactive)	> 100 µM (inactive)	> 100 µM (inactive)	> 100 µM (inactive)	> 100 µM (inactive)	> 100 µM (inactive)	> 100 µM (inactive)	–	> 100 µM (inactive)	> 100 µM (inactive)	> 100 µM (inactive)

— ChEMBL document CHEMBL1201862, “PubChem BioAssay data set” (2004)
